#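 Method: 48-hour compound exposure of cells in 96-well plates, five concentrations, linear interpolation of endpoints. GI50 = concentration required for 50% inhibition of growth. TGI: concentration producing complete growth inhibition.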
# Tested on: A498 renal
# Assay: inhibition of tumour cell growth, NCI panel, 48 h
SMILES,TGI,GI50
O=C(CCNC12CC3CC(CC(C3)C1)C2)c1ccccc1,62.9 µM,
COc1cccc(-c2cc(-c3cccc(NS(C)(=O)=O)c3)nc(N)c2C#N)c1O,35 µM,0.0999 µM
CCN1CCN(Cc2ccc(NC(=O)c3cccc(C#Cc4cccc5[nH]nc(N)c45)c3)cc2C(F)(F)F)CC1,1.07 µM,0.108 µM
Cc1cc(N(CCC#N)CCC#N)ccc1N=Nc1ccc(S(N)(=O)=O)cc1,> 100 µM,
CC(=O)[CH-]C(=O)c1ccccc1.CC(=O)[CH-]C(=O)c1ccccc1.CN(C)c1ccc([O-])cc1.CN(C)c1ccc([O-])cc1.Cl.[Ti+4],> 100 µM,31.1 µM
CCN(CC)N=Nc1c(C(N)=O)n[nH]c1C,> 100 µM,
CCC[CH2][Sn]([CH2]CCC)([S]c1cccc2cccnc12)[S]c1cccc2cccnc12,0.6 µM,0.254 µM
Nc1ccccc1S(=O)(=O)N(CC(=O)O)c1ccccc1,> 100 µM,
CCOC(=O)C(C)(C)Oc1ccc2c(-c3ccccc3)cc(=O)oc2c1,> 100 µM,
O=C(Nc1ccc(F)cc1)Nc1ccc(Cl)c([N+](=O)[O-])c1,5.78 µM,1.8 µM
CNC(=S)OCCC(C)CCCC(C)C (stereo not drawn),30 µM,
COC1/C=C/OC2(C)Oc3c(C)c(O)c4c(O)c(c(/C=N/Nc5ccc([N+](=O)[O-])cc5[N+](=O)[O-])c(O)c4c3C2=O)NC(=O)C(C)=C/C=C/C(C)C(O)C(C)C(O)C(C)C(OC(C)=O)C1C (stereo not drawn),14 µM,6.87 µM
COC(=O)/C(C#N)=C1\NC(=O)c2ccccc21,> 100 µM,

# Tested on: OVCAR-3 ovarian
# Assay: inhibition of tumour cell growth, NCI panel, 48 h
SMILES,GI50,TGI
CN(C)c1ccc(/C=C\C2=[N+](C)c3ccccc3C2(C)C)cc1,0.342 µM,4.38 µM
COc1cc2c(c3oc4c(O)cccc4c(=O)c13)CC(C(C)(O)CO)O2 (stereo not drawn),,> 100 µM
CC(=O)OC1OC([C@@H]2c3cccc(O)c3C(=O)c3c(O)cc(C)cc32)C(O)C(O)C1O (stereo partly drawn),< 0.018 µM,0.0485 µM
Nc1nc(-n2c(-c3ccccc3)nc3c(Br)cc(Br)cc3c2=O)nnc1-c1cccc(Cl)c1Cl,6.84 µM,53.6 µM
C[N+](C)(C)CC(=O)N/N=C(/CC(=O)CC(C1=C(O)c2ccccc2OC1)c1ccccc1)C(=O)Nc1cccc(Cl)c1 (stereo not drawn),,> 100 µM
O=C1/C(=C/c2ccc(O)c(O)c2)CCC/C1=C\c1ccc(O)c(O)c1,,17.8 µM
Cc1c(C(=O)C/C(=N/NC(=O)c2ccccc2O)C(=O)Nc2ccccc2C(C)C)[n+](=O)c2ccccc2n1[O-],,> 100 µM
CCCCCCCCCCCC(=O)OCCOCCOCCOCCOCCOCc1ccccc1,,> 100 µM
COC(=O)/C=C1\S/C(=N\NC(=O)c2cc3ccc2/C=C\c2ccc(cc2)/C=C\3)N(c2ccccc2)C1=O,1.8 µM,3.61 µM
COC([CH2][Hg][n]1cnc2c1c(=O)n(C)c(=O)n2C)CN1C(=O)c2ccccc2S1(=O)=O (stereo not drawn),> 100 µM,> 100 µM
CCCC1C(=O)CCc2c(OC)ccc(OC)c21 (stereo not drawn),,> 100 µM
O=C(CCc1nc(=S)[nH][nH]1)Nc1cc(Cl)c(Cl)cc1Cl,,> 100 µM
Cc1ccc(S(=O)(=O)OC[C@@H]2CO2)cc1,,> 100 µM
C=CCO[C@H]1CO[C@H]2[C@@H]1OC[C@@H]2Oc1ccc(Nc2ccnc(Nc3ccc(O[C@H]4CO[C@H]5[C@@H]4OC[C@@H]5OCC=C)c(Cl)c3)n2)cc1Cl,1.81 µM,3.25 µM
CCn1c(C)nn2c(=O)c3ccccc3nc2c1=O,,> 100 µM
COc1cnc2c(c1)C(=O)c1c-2n(CCCN2CCOCC2)c(=O)c2cc(F)ccc12,0.25 µM,2.37 µM
CCOC(=O)CCC1(C(=O)OCC)CCCCC1=O (stereo not drawn),,> 100 µM
CCOC1Oc2ccccc2C(=O)/C1=C/Nc1ccc(C(C)=O)cc1 (stereo not drawn),17.2 µM,43.8 µM
Cc1nc2c(ccc3ncccc32)[nH]1,,> 100 µM
CCN1CCN(Cc2ccc(NC(=O)c3cccc(C#Cc4cccc5[nH]nc(N)c45)c3)cc2C(F)(F)F)CC1,0.615 µM,2.17 µM
Cc1cc(N(CCC#N)CCC#N)ccc1N=Nc1ccc(S(N)(=O)=O)cc1,,> 100 µM
CCN(CC)N=Nc1c(C(N)=O)n[nH]c1C,,> 100 µM
CCC[CH2][Sn]([CH2]CCC)([S]c1cccc2cccnc12)[S]c1cccc2cccnc12,0.0703 µM,0.228 µM
OCC1=CC(NC2CC(CO)C(O)C(O)C2O)C(O)C(O)C1O (stereo not drawn),,> 100 µM
CCOC(=O)C(C)(C)Oc1ccc2c(-c3ccccc3)cc(=O)oc2c1,,> 100 µM
O=C(Nc1ccc(F)cc1)Nc1ccc(Cl)c([N+](=O)[O-])c1,3.81 µM,19.1 µM
COC1/C=C/OC2(C)Oc3c(C)c(O)c4c(O)c(c(/C=N/Nc5ccc([N+](=O)[O-])cc5[N+](=O)[O-])c(O)c4c3C2=O)NC(=O)C(C)=C/C=C/C(C)C(O)C(C)C(O)C(C)C(OC(C)=O)C1C (stereo not drawn),1.1 µM,2.52 µM
COC(=O)/C(C#N)=C1\NC(=O)c2ccccc21,,> 100 µM
Cc1ccc(NC(=O)Nc2ccc(-c3cccnc3)cc2N2CCC(CO)CC2)cc1,1.67 µM,5.23 µM

# Tested on: HT29 colon
# Assay: inhibition of tumour cell growth, NCI panel, 48 h
SMILES,GI50,TGI
CN(C)c1ccc(/C=C\C2=[N+](C)c3ccccc3C2(C)C)cc1,0.309 µM,
COc1cc2c(c3oc4c(O)cccc4c(=O)c13)CC(C(C)(O)CO)O2 (stereo not drawn),,> 100 µM
CC(=O)OC1OC([C@@H]2c3cccc(O)c3C(=O)c3c(O)cc(C)cc32)C(O)C(O)C1O (stereo partly drawn),0.059 µM,> 100 µM
Nc1nc(-n2c(-c3ccccc3)nc3c(Br)cc(Br)cc3c2=O)nnc1-c1cccc(Cl)c1Cl,4.82 µM,> 100 µM
C[N+](C)(C)CC(=O)N/N=C(/CC(=O)CC(C1=C(O)c2ccccc2OC1)c1ccccc1)C(=O)Nc1cccc(Cl)c1 (stereo not drawn),,> 100 µM
O=C1/C(=C/c2ccc(O)c(O)c2)CCC/C1=C\c1ccc(O)c(O)c1,,21.2 µM
Cc1c(C(=O)C/C(=N/NC(=O)c2ccccc2O)C(=O)Nc2ccccc2C(C)C)[n+](=O)c2ccccc2n1[O-],,> 100 µM
CCCCCCCCCCCC(=O)OCCOCCOCCOCCOCCOCc1ccccc1,,> 100 µM
COC(=O)/C=C1\S/C(=N\NC(=O)c2cc3ccc2/C=C\c2ccc(cc2)/C=C\3)N(c2ccccc2)C1=O,1.93 µM,4.07 µM
COC([CH2][Hg][n]1cnc2c1c(=O)n(C)c(=O)n2C)CN1C(=O)c2ccccc2S1(=O)=O (stereo not drawn),> 100 µM,> 100 µM
CCCC1C(=O)CCc2c(OC)ccc(OC)c21 (stereo not drawn),,> 100 µM
O=C(CCc1nc(=S)[nH][nH]1)Nc1cc(Cl)c(Cl)cc1Cl,,> 100 µM
Cc1ccc(S(=O)(=O)OC[C@@H]2CO2)cc1,,> 100 µM
C=CCO[C@H]1CO[C@H]2[C@@H]1OC[C@@H]2Oc1ccc(Nc2ccnc(Nc3ccc(O[C@H]4CO[C@H]5[C@@H]4OC[C@@H]5OCC=C)c(Cl)c3)n2)cc1Cl,2.08 µM,4.99 µM
CCn1c(C)nn2c(=O)c3ccccc3nc2c1=O,,> 100 µM
COc1cnc2c(c1)C(=O)c1c-2n(CCCN2CCOCC2)c(=O)c2cc(F)ccc12,0.147 µM,0.638 µM

SMILES,GI50,TGI
CCOC(=O)CCC1(C(=O)OCC)CCCCC1=O (stereo not drawn),,> 100 µM
CCOC1Oc2ccccc2C(=O)/C1=C/Nc1ccc(C(C)=O)cc1 (stereo not drawn),36.3 µM,> 100 µM
Cc1nc2c(ccc3ncccc32)[nH]1,,> 100 µM
O=C(CCNC12CC3CC(CC(C3)C1)C2)c1ccccc1,,23.6 µM
COc1cccc(-c2cc(-c3cccc(NS(C)(=O)=O)c3)nc(N)c2C#N)c1O,0.0924 µM,
CCN1CCN(Cc2ccc(NC(=O)c3cccc(C#Cc4cccc5[nH]nc(N)c45)c3)cc2C(F)(F)F)CC1,0.118 µM,1.16 µM
Cc1cc(N(CCC#N)CCC#N)ccc1N=Nc1ccc(S(N)(=O)=O)cc1,,> 100 µM
CC(=O)[CH-]C(=O)c1ccccc1.CC(=O)[CH-]C(=O)c1ccccc1.CN(C)c1ccc([O-])cc1.CN(C)c1ccc([O-])cc1.Cl.[Ti+4],18.1 µM,> 31.6 µM
CCN(CC)N=Nc1c(C(N)=O)n[nH]c1C,,> 100 µM
CCC[CH2][Sn]([CH2]CCC)([S]c1cccc2cccnc12)[S]c1cccc2cccnc12,0.138 µM,0.335 µM
OCC1=CC(NC2CC(CO)C(O)C(O)C2O)C(O)C(O)C1O (stereo not drawn),,> 100 µM
Nc1ccccc1S(=O)(=O)N(CC(=O)O)c1ccccc1,,> 100 µM
O=C(Nc1ccc(F)cc1)Nc1ccc(Cl)c([N+](=O)[O-])c1,3.2 µM,12.4 µM
CNC(=S)OCCC(C)CCCC(C)C (stereo not drawn),,31.3 µM
COC(=O)/C(C#N)=C1\NC(=O)c2ccccc21,,> 100 µM
Cc1ccc(NC(=O)Nc2ccc(-c3cccnc3)cc2N2CCC(CO)CC2)cc1,1.47 µM,9.93 µM

# Tested on: 786-0 renal
# Assay: inhibition of tumour cell growth, NCI panel, 48 h
SMILES,GI50,TGI
CN(C)c1ccc(/C=C\C2=[N+](C)c3ccccc3C2(C)C)cc1,2.48 µM,> 41.2 µM
COc1cc2c(c3oc4c(O)cccc4c(=O)c13)CC(C(C)(O)CO)O2 (stereo not drawn),,> 100 µM

# Reference: PubChem BioAssay (NCI)
